Test systems include HCC 2998; HOP-92; UO-31; SNB-75; OVCAR-5; SF-295; K562; A549; SR; COLO 205; LXFL 529; TK-10; OVCAR-8; NCI-H23; SW-620; CAKI-1; RPMI-8226.
Common to all, as to test: NCI anticancer screen, dose series, 48 h

Data on twelve compounds can be found in ChEMBL document CHEMBL1201862, “PubChem BioAssay data set” (2004).

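Exposure lasted 48 hours, with cells grown in 96-well plates and compounds tested at five concentrations. GI50: concentration for 50% inhibition of growth.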 Active and inactive are the calls of the source. Rule as the data show it: active = GI50 up to about 1.1 µM and inactive = higher.

As to `O=C(/C=C1\Nc2ccccc2C(=O)N1c1ccccc1Cl)c1ccccc1`, the GI50 with HCC 2998 was > 100 µM (inactive); with HOP-92 it was 17.9 µM (inactive); with UO-31, > 100 µM (inactive); in the assay with SNB-75, 32.7 µM (inactive); with OVCAR-5 it was > 100 µM (inactive); in the assay on SF-295, > 100 µM (inactive). Also, the GI50 was 87.5 µM (inactive) in the assay on K562; 87.5 µM (inactive) with A549; > 100 µM (inactive) in the assay with SR; > 100 µM (inactive) in the assay with COLO 205; > 100 µM (inactive) in the assay on LXFL 529; > 100 µM (inactive) in the assay on TK-10. The GI50 in the assay with OVCAR-8, with NCI-H23, in the assay on SW-620 and with CAKI-1 was > 100 µM (inactive) in each case.

For the compound `O=C(/C=C/c1ccc(OCCCOc2ccc(/C=C/C(=O)c3ccc(Cl)cc3)cc2)cc1)c1ccc(Cl)cc1`, the GI50 was > 100 µM (inactive) with HCC 2998; > 100 µM (inactive) in the assay on HOP-92; 34.6 µM (inactive) with SNB-75; > 100 µM (inactive) with OVCAR-5; > 100 µM (inactive) in the assay on RPMI-8226; > 100 µM (inactive) in the assay with SF-295. The GI50 in the assay with K562, in the assay with A549, with SR, in the assay with COLO 205, with LXFL 529 and with TK-10 was > 100 µM (inactive) throughout. Further, the GI50 in the assay with OVCAR-8, with NCI-H23, with SW-620 and in the assay on CAKI-1 was > 100 µM (inactive) throughout.

`C=C1C=CC2(Br)OC3CC(C)(Cl)C(Br)CC13C2(C)C` (configuration not stated): the GI50 is 20.4 µM (inactive) in the assay with HCC 2998; 21.2 µM (inactive) in the assay with HOP-92; 20.7 µM (inactive) in the assay with UO-31; 25.2 µM (inactive) with SNB-75; 17.1 µM (inactive) with OVCAR-5; 23.2 µM (inactive) with RPMI-8226. Also, the GI50 with SF-295 was 20.4 µM (inactive); in the assay on K562, 17.9 µM (inactive); with A549 it was 26.4 µM (inactive); in the assay with COLO 205, 16.1 µM (inactive); with LXFL 529, 22.5 µM (inactive); in the assay with TK-10, 37.2 µM (inactive). Besides, the GI50 in the assay with OVCAR-8 is 30.7 µM (inactive); in the assay with NCI-H23, 19.1 µM (inactive); in the assay on SW-620, 24.2 µM (inactive); with CAKI-1, 29.5 µM (inactive).

On to `COc1cc(C(O)C(=O)c2nc3ccc([N+](=O)[O-])cc3nc2O)ccc1O` (configuration not stated), for which the GI50 with HCC 2998 is 74.1 µM (inactive); in the assay with UO-31 it was > 100 µM (inactive); in the assay with OVCAR-5, > 100 µM (inactive); with RPMI-8226, 77.3 µM (inactive); in the assay on SF-295, > 100 µM (inactive); in the assay with K562, 57.1 µM (inactive). Further, the GI50 in the assay on A549 was 98.9 µM (inactive); with SR, > 100 µM (inactive); in the assay with COLO 205 it was > 100 µM (inactive); in the assay on LXFL 529 it was 35.8 µM (inactive); with TK-10, > 100 µM (inactive); with OVCAR-8 it was > 100 µM (inactive). Also, the GI50 with NCI-H23, with SW-620 and in the assay with CAKI-1 was > 100 µM (inactive) throughout.

For `COC(=O)C12C3C4C1C1C2C3C41C(=O)N(C(C)C)C(C)C` (configuration not stated), the GI50 in the assay with HCC 2998 is > 100 µM (inactive); with HOP-92 it was > 100 µM (inactive); in the assay on UO-31, > 100 µM (inactive); with SNB-75, 50.2 µM (inactive); in the assay on OVCAR-5, > 100 µM (inactive); in the assay on SF-295, > 100 µM (inactive). For the same compound, the GI50 in the assay on K562, in the assay on A549, in the assay on SR, in the assay with COLO 205, in the assay on LXFL 529 and in the assay on TK-10 was > 100 µM (inactive) in each case. Besides, the GI50 in the assay on OVCAR-8, with NCI-H23 and in the assay with SW-620 was > 100 µM (inactive) in each case.

For the compound `[N-]=[N+]=N/C1=C/CCCCC(=O)C1`, the GI50 in the assay on HCC 2998 is > 100 µM (inactive); in the assay with HOP-92 it was 51.4 µM (inactive); in the assay on UO-31, > 100 µM (inactive); in the assay with SNB-75 it was > 100 µM (inactive); in the assay on OVCAR-5, > 100 µM (inactive); in the assay on RPMI-8226 it was > 100 µM (inactive). The GI50 with K562, in the assay on A549, in the assay on COLO 205, in the assay on LXFL 529, in the assay on TK-10 and in the assay with OVCAR-8 was > 100 µM (inactive) each time. For the same compound, the GI50 in the assay on NCI-H23, with SW-620 and in the assay with CAKI-1 was > 100 µM (inactive) throughout.

Take `[O-][n+]1c2cc3c(cc2[n+]([O-])c2c(O)cccc21)CN(CCN1CCOCC1)C3`: the GI50 in the assay on HOP-92 is 5.7 µM (inactive); in the assay with UO-31 it was 10.6 µM (inactive); in the assay with SNB-75, 89.1 µM (inactive); with OVCAR-5, 38 µM (inactive); in the assay on RPMI-8226, 18.4 µM (inactive); with SF-295 it was 13.1 µM (inactive). The GI50 was 12 µM (inactive) in the assay on K562; 34.9 µM (inactive) in the assay on A549; 2.48 µM (inactive) with SR; 14.5 µM (inactive) with COLO 205; 14.1 µM (inactive) in the assay on LXFL 529; 27.4 µM (inactive) in the assay on TK-10. The GI50 in the assay on OVCAR-8 is 12.1 µM (inactive); in the assay on NCI-H23, 30.7 µM (inactive); in the assay on CAKI-1, 48.9 µM (inactive).

In the case of `O=[N+]([O-])c1cc(C(F)(F)F)cc([N+](=O)[O-])c1CCl`, the GI50 is 4.9 µM (inactive) in the assay on HOP-92; 7.87 µM (inactive) with UO-31; 4.5 µM (inactive) with SNB-75; 5.3 µM (inactive) in the assay on OVCAR-5; 1.16 µM (inactive) in the assay on RPMI-8226; 5.78 µM (inactive) with SF-295. The GI50 with K562 was 0.18 µM (active); in the assay with A549, 9.53 µM (inactive); in the assay on SR it was 0.388 µM (active); with COLO 205, 2.13 µM (inactive); with LXFL 529, 0.228 µM (active); in the assay with TK-10 it was 8.53 µM (inactive). The GI50 was 2.14 µM (inactive) in the assay on OVCAR-8, 1.69 µM (inactive) in the assay with NCI-H23, 0.429 µM (active) in the assay with SW-620 and 3.15 µM (inactive) with CAKI-1.

With `COc1cccc(NC(=O)C(=O)C2C=CCS2(=O)=O)c1` (configuration not stated), the GI50 in the assay with HCC 2998 is > 100 µM (inactive); with UO-31 it was > 100 µM (inactive); with SNB-75, 56 µM (inactive); in the assay on OVCAR-5, > 100 µM (inactive); in the assay on RPMI-8226 it was > 100 µM (inactive); in the assay with SF-295, > 100 µM (inactive). For the same compound, the GI50 with K562, in the assay on A549, in the assay on SR, in the assay on COLO 205, in the assay on LXFL 529 and in the assay on TK-10 was > 100 µM (inactive) throughout. For the same compound, the GI50 with OVCAR-8 was 53.8 µM (inactive); in the assay on NCI-H23 it was > 100 µM (inactive); in the assay with SW-620, > 100 µM (inactive); in the assay with CAKI-1 it was > 100 µM (inactive).

As for `CC(=O)O[C@H]1C=CC23OC(=O)[C@]1(C)[C@H]2[C@H](C(=O)O)C12CC(=O)[C@@](CO)(CC[C@H]13)C2`, the GI50 in the assay on HCC 2998, in the assay on HOP-92, in the assay on UO-31, with OVCAR-5, in the assay on RPMI-8226 and with SF-295 was > 100 µM (inactive) each time. The GI50 in the assay on K562, with A549, in the assay with SR, in the assay with COLO 205, with LXFL 529 and in the assay with TK-10 was > 100 µM (inactive) in each case. For the same compound, the GI50 with OVCAR-8, in the assay on NCI-H23, with SW-620 and in the assay with CAKI-1 was > 100 µM (inactive) each time.

Regarding `CCOC(=O)C1C=C2O[C@@H]3OC4(CCCCC4)O[C@@H]3C2C2C(=O)CCC(=O)[C@@]12C(=O)OC` (some centres not stated), the GI50 in the assay with HCC 2998, in the assay on HOP-92, in the assay on UO-31, in the assay with SNB-75, with OVCAR-5 and with RPMI-8226 was > 100 µM (inactive) throughout. The GI50 in the assay with SF-295, in the assay on K562, in the assay on A549, in the assay with COLO 205, in the assay on LXFL 529 and in the assay with OVCAR-8 was > 100 µM (inactive) throughout. Besides, the GI50 in the assay on NCI-H23, with SW-620 and in the assay with CAKI-1 was > 100 µM (inactive) each time.

On to `COc1cc2c(c(OC)c1OC)-c1ccc(SC)c(=O)cc1[C@@H](NCc1ccccc1[N+](=O)[O-])CC2`, for which the GI50 was 0.0128 µM (active) in the assay on HCC 2998; 0.0257 µM (active) in the assay on HOP-92; 0.01 µM (active) in the assay on UO-31; 0.00225 µM (active) with SNB-75; 0.0216 µM (active) in the assay with OVCAR-5; 0.00671 µM (active) in the assay on RPMI-8226. In addition, the GI50 with SF-295 is 0.00826 µM (active); in the assay with K562, 0.00369 µM (active); in the assay on A549, 0.00929 µM (active); in the assay on COLO 205 it was 0.0082 µM (active); with LXFL 529, 0.0128 µM (active); with TK-10 it was 0.061 µM (active). In addition, the GI50 in the assay on OVCAR-8 is 0.0184 µM (active); in the assay on NCI-H23 it was 0.00429 µM (active); in the assay on SW-620, 0.00333 µM (active); in the assay on CAKI-1, 0.01 µM (active).
